# How the values were obtained:
# [1] = target: T1, AMP-activated protein kinase (AMPK) alpha-1/beta-1/gamma-1 (Homo sapiens) (UniProt P54619+Q9Y478+Q13131); test: Activation of recombinant AMPK alpha1/beta1/gamma1 (unknown origin) at 10 uM relative to control; type: protein-complex assay; settings: filed as activator
# Cannabinoid receptor 1 [2] = target: T2, Cannabinoid receptor 1 (Mus musculus, UniProt P47746); test: Displacement of [3H][…] from CB1 receptor in mouse brain plasma membrane by radioligand displacement analysis; type: cell membranes
# [3] = target: T1, AMP-activated protein kinase (AMPK) alpha-1/beta-1/gamma-1 (Homo sapiens); test: Activation of recombinant AMPK alpha1/beta1/gamma1 (unknown origin) at 1 uM relative to control; type: protein-complex assay; settings: filed as activator
# Cannabinoid receptor 1 [4] = target: T2, Cannabinoid receptor 1; test: Antagonist activity at CB1 receptor in mouse brain membrane assessed as inhibition of […]-induced GTPgammaS binding by [35S]GTPgammaS binding analysis; type: functional, cell membranes
# [5] = Drug uptake in C57BL/6J mouse plasma at 10 mg/kg, po measured after 1 hr by LC-MS/MS analysis; type: ADME, organism-based
# [6] = Drug uptake in C57BL/6J mouse brain at 10 mg/kg, po measured after 1 hr by LC-MS/MS analysis; type: ADME, organism-based; settings: read-out: Drug uptake
# T1 sequence (P54619 whole entry): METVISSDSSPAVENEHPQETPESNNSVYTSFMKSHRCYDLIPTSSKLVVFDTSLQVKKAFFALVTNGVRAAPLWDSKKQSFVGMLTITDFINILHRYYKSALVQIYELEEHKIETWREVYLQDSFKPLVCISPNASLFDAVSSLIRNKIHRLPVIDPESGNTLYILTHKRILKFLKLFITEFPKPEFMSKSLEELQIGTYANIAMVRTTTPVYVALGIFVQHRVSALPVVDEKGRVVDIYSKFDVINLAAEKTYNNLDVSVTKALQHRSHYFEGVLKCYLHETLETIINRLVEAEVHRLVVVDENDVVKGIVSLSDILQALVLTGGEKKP
# T1 sequence (Q13131 whole entry partner): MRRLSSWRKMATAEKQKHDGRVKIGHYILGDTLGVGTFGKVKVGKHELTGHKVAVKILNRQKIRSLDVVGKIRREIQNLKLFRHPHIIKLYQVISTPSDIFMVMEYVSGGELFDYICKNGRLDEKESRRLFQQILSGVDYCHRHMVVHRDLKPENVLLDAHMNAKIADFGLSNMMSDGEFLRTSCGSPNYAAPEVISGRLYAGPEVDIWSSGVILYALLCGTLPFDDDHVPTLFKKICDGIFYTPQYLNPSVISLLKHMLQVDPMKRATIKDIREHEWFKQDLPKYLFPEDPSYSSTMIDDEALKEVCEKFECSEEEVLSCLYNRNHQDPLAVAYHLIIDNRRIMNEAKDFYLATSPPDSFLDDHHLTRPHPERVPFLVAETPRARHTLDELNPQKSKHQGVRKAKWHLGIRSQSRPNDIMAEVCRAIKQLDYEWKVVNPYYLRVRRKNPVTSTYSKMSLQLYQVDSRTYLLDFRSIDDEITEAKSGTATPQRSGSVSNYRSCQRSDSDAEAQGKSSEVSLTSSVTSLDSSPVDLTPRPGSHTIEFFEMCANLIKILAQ
# T1 sequence (Q9Y478 2-270 partner limits assumed): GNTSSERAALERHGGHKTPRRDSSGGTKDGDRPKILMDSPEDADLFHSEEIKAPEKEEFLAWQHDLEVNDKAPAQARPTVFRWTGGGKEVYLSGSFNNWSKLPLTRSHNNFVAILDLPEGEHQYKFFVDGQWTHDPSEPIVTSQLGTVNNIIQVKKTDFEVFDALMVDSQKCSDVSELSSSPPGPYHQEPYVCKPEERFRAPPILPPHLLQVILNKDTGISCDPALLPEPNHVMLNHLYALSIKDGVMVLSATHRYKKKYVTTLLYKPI
# T2 sequence (P47746 whole entry): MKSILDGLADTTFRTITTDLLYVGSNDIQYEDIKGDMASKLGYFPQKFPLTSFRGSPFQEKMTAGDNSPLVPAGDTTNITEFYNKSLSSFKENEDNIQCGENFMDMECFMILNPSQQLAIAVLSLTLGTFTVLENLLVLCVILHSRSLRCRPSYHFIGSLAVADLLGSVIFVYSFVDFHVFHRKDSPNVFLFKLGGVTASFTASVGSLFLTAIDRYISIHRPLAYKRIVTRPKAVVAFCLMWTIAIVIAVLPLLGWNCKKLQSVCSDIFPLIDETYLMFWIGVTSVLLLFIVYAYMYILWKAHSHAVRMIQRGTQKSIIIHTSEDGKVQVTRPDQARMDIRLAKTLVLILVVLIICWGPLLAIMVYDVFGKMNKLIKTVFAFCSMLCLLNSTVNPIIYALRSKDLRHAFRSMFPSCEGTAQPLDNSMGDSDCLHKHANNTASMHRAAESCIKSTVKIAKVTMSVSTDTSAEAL
Structure (SMILES),Activity [1] [%],Ki (Cannabinoid receptor 1 [2]) [nM],Activity [3] [%],IC50 (Cannabinoid receptor 1 [4]) [nM],concentration at 1 h [5] [ng/mL],concentration at 1 h [6] [ng/g]
N/C(=N\C(=N\S(=O)(=O)c1ccc(Cl)cc1)N1CC(c2ccccc2)C(c2ccc(Cl)cc2)=N1)N1CCOCC1 (centres undefined),127,,,,,
CC(=O)N/C(N)=N/C(=N/S(=O)(=O)c1ccc(I)cc1)N1C[C@@H](c2ccccc2)C(c2ccc(Cl)cc2)=N1,122,55,,,,
N/C(=N\C(=N\S(=O)(=O)c1ccc2ccccc2c1)N1CC(c2ccccc2)C(c2ccc(Cl)cc2)=N1)NC(=O)c1ccccc1 (centres undefined),,8.1,90,66,,
N/C(=N\C(=N\S(=O)(=O)c1ccc(Cl)cc1)N1CC(c2ccccc2)C(c2ccc(Cl)cc2)=N1)N1CCCCC1 (centres undefined),166,,,,,
CC(=O)N/C(N)=N/C(=N/S(=O)(=O)c1ccc(Cl)cc1)N1CC(c2ccccc2)C(c2ccc(Cl)cc2)=N1 (centres undefined),,2.9,142,3.1,,
CN(C)/C(N)=N/C(=N/S(=O)(=O)c1ccc(Cl)cc1)N1CC(c2ccccc2)C(c2ccc(Cl)cc2)=N1 (centres undefined),124,,124,47,,
CN1CCN(/C(N)=N/C(=N/S(=O)(=O)c2ccc(Cl)cc2)N2CC(c3ccccc3)C(c3ccc(Cl)cc3)=N2)CC1 (centres undefined),182,,,,,
N/C(=N\C(=N\S(=O)(=O)c1ccc(Cl)cc1)N1CC(c2ccccc2)C(c2ccc(Cl)cc2)=N1)NC12C[C@H]3C[C@@H](C1)C[C@@H](C2)C3 (some centres undefined),,> 1000,,,,
CC(C)(C)N/C(N)=N/C(=N/S(=O)(=O)c1ccc(Cl)cc1)N1CC(c2ccccc2)C(c2ccc(Cl)cc2)=N1 (centres undefined),126,,126,230,,
N/C(=N\C(=N\S(=O)(=O)c1ccc(Cl)cc1)N1CC(c2ccccc2)C(c2ccc(Cl)cc2)=N1)NCC12C[C@H]3C[C@@H](C1)C[C@@H](C2)C3 (some centres undefined),,> 1000,,,,
CC(=O)N/C(N)=N/C(=N/S(=O)(=O)c1ccccc1)N1CC(c2ccccc2)C(c2ccc(Cl)cc2)=N1 (centres undefined),,6.8,93,21,,
CCCCN(CC)/C(N)=N/C(=N/S(=O)(=O)c1ccc(Cl)cc1)N1CC(c2ccccc2)C(c2ccc(Cl)cc2)=N1 (centres undefined),172,,,,,
C=CCN(CC=C)/C(N)=N/C(=N/S(=O)(=O)c1ccc(Cl)cc1)N1CC(c2ccccc2)C(c2ccc(Cl)cc2)=N1 (centres undefined),157,,,,,
CN/C(N)=N/C(=N/S(=O)(=O)c1ccc(Cl)cc1)N1CC(c2ccccc2)C(c2ccc(Cl)cc2)=N1 (centres undefined),139,,,,,
Cc1ccc(S(=O)(=O)/N=C(/N=C(\N)NC(=O)c2ccccc2)N2CC(c3ccccc3)C(c3ccc(Cl)cc3)=N2)cc1 (centres undefined),,25,102,59,,
CC(=O)N/C(N)=N/C(=N/S(=O)(=O)c1ccc2ccccc2c1)N1C[C@@H](c2ccccc2)C(c2ccc(Cl)cc2)=N1,,78,,,,
CC(=O)N/C(N)=N/C(=N/S(=O)(=O)c1ccc(Cl)cc1)N1C[C@@H](c2ccccc2)C(c2ccc(Cl)cc2)=N1,130,103,,,,
NC(N)=N/C(=N/S(=O)(=O)c1ccc(Cl)cc1)N1CC(c2ccccc2)C(c2ccc(Cl)cc2)=N1 (centres undefined),,415,,,,
COCCN(CCOC)/C(N)=N/C(=N/S(=O)(=O)c1ccc(Cl)cc1)N1CC(c2ccccc2)C(c2ccc(Cl)cc2)=N1 (centres undefined),155,,,,,
COCCN/C(N)=N/C(=N/S(=O)(=O)c1ccc(Cl)cc1)N1CC(c2ccccc2)C(c2ccc(Cl)cc2)=N1 (centres undefined),156,,,,,
CC(=O)N/C(N)=N/C(=N/S(=O)(=O)N1CCC(F)(F)CC1)N1CC(c2ccccc2)C(c2ccc(Cl)cc2)=N1 (centres undefined),,0.7,142,2,26,4
COc1ccc(S(=O)(=O)/N=C(/N=C(\N)NC(C)=O)N2CC(c3ccccc3)C(c3ccc(Cl)cc3)=N2)cc1 (centres undefined),,13,98,16,,
CCN(CC)S(=O)(=O)/N=C(/N=C(\N)NC(C)=O)N1CC(c2ccccc2)C(c2ccc(Cl)cc2)=N1 (centres undefined),,1.3,152,2.1,,
CC(=O)N/C(N)=N/C(=N/S(=O)(=O)c1ccc(OC(F)(F)F)cc1)N1C[C@@H](c2ccccc2)C(c2ccc(Cl)cc2)=N1,114,5.3,,,,
CC(=O)N/C(N)=N/C(=N/S(=O)(=O)N1CCC(C(F)(F)F)CC1)N1CC(c2ccccc2)C(c2ccc(Cl)cc2)=N1 (centres undefined),,0.8,116,2.5,28,0.21
CC(=O)N/C(N)=N/C(=N/S(=O)(=O)c1ccc(OC(F)(F)F)cc1)N1CC(c2ccccc2)C(c2ccc(Cl)cc2)=N1 (centres undefined),,,125,3.2,,
CCC(=O)N/C(N)=N/C(=N/S(=O)(=O)c1ccc(Cl)cc1)N1CC(c2ccccc2)C(c2ccc(Cl)cc2)=N1 (centres undefined),,2.8,91,6,,

Structure (SMILES),Activity [1] [%],Ki (Cannabinoid receptor 1 [2]) [nM],Activity [3] [%],IC50 (Cannabinoid receptor 1 [4]) [nM],concentration at 1 h [5] [ng/mL],concentration at 1 h [6] [ng/g]
N/C(=N\C(=N\S(=O)(=O)c1ccc(Cl)cc1)N1CC(c2ccccc2)C(c2ccc(Cl)cc2)=N1)NCc1ccccc1 (centres undefined),149,,,,,
CC(=O)N/C(N)=N/C(=N/S(=O)(=O)c1ccc(C#N)cc1)N1CC(c2ccccc2)C(c2ccc(Cl)cc2)=N1 (centres undefined),,0.4,91,5.8,,
CN(Cc1ccccc1)/C(N)=N/C(=N/S(=O)(=O)c1ccc(Cl)cc1)N1CC(c2ccccc2)C(c2ccc(Cl)cc2)=N1 (centres undefined),153,,,,,
N/C(=N\C(=N\S(=O)(=O)c1ccc(I)cc1)N1CC(c2ccccc2)C(c2ccc(Cl)cc2)=N1)NC(=O)c1ccccc1 (centres undefined),,5.5,96,14,,
CC(=O)N/C(N)=N/C(=N/S(=O)(=O)c1ccc2ccccc2c1)N1CC(c2ccccc2)C(c2ccc(Cl)cc2)=N1 (centres undefined),,16,117,6.1,,
CC(C)N/C(N)=N/C(=N/S(=O)(=O)c1ccc(Cl)cc1)N1CC(c2ccccc2)C(c2ccc(Cl)cc2)=N1 (centres undefined),145,,,,,
CN/C(=N\S(=O)(=O)c1ccc(Cl)cc1)N1C[C@H](c2ccccc2)C(c2ccc(Cl)cc2)=N1,100,,,,,
CC(=O)N/C(N)=N/C(=N/S(=O)(=O)c1ccc(F)cc1)N1CC(c2ccccc2)C(c2ccc(Cl)cc2)=N1 (centres undefined),,2.3,95,10,,
CC(=O)N/C(N)=N/C(=N/S(=O)(=O)c1ccc(C(C)C)cc1)N1CC(c2ccccc2)C(c2ccc(Cl)cc2)=N1 (centres undefined),,3.7,119,1.7,,
CN=C(NS(=O)(=O)c1ccc(Cl)cc1)N1C[C@H](c2ccccc2)C(c2ccc(Cl)cc2)=N1 [IBIPINABANT],,8.1,,,,
CC(=O)N/C(N)=N/C(=N/S(=O)(=O)c1ccc(Br)cc1)N1CC(c2ccccc2)C(c2ccc(Cl)cc2)=N1 (centres undefined),,0.6,94,4.9,,
N/C(=N\C(=N\S(=O)(=O)c1ccc(Cl)cc1)N1CC(c2ccccc2)C(c2ccc(Cl)cc2)=N1)NC(=O)c1ccccc1 (centres undefined),,0.8,100,25,,
CCCN(CCC)/C(N)=N/C(=N/S(=O)(=O)c1ccc(Cl)cc1)N1CC(c2ccccc2)C(c2ccc(Cl)cc2)=N1 (centres undefined),175,,175,396,,
CC(=O)N/C(N)=N/C(=N/S(=O)(=O)c1ccc(C)cc1)N1CC(c2ccccc2)C(c2ccc(Cl)cc2)=N1 (centres undefined),,8.6,96,19,,
CCC(=O)N/C(N)=N/C(=N/S(=O)(=O)c1ccc(C(F)(F)F)cc1)N1CC(c2ccccc2)C(c2ccc(Cl)cc2)=N1 (centres undefined),,3.3,96,5.5,,
COc1ccc(S(=O)(=O)/N=C(/N=C(\N)NC(=O)c2ccccc2)N2CC(c3ccccc3)C(c3ccc(Cl)cc3)=N2)cc1 (centres undefined),,8.5,98,68,,
CC(=O)N/C(N)=N/C(=N/S(=O)(=O)N1CCCCC1)N1CC(c2ccccc2)C(c2ccc(Cl)cc2)=N1 (centres undefined),,1.6,152,7,44,1.9
CC(=O)N/C(N)=N/C(=N/S(=O)(=O)c1ccc(C(C)(C)C)cc1)N1CC(c2ccccc2)C(c2ccc(Cl)cc2)=N1 (centres undefined),,,118,1.4,,
CC(=O)N/C(N)=N/C(=N/S(=O)(=O)N1CCC(C(F)(F)F)CC1)N1C[C@@H](c2ccccc2)C(c2ccc(Cl)cc2)=N1,114,37,,,,
CC(C)(N/C(N)=N/C(=N/S(=O)(=O)c1ccc(Cl)cc1)N1CC(c2ccccc2)C(c2ccc(Cl)cc2)=N1)c1ccccc1 (centres undefined),100,,100,84,,
N/C(=N\C(=N\S(=O)(=O)c1ccc(Cl)cc1)N1CC(c2ccccc2)C(c2ccc(Cl)cc2)=N1)NCCc1ccccc1 (centres undefined),136,,,,,
N/C(=N\C(=N\S(=O)(=O)c1ccc(C(F)(F)F)cc1)N1CC(c2ccccc2)C(c2ccc(Cl)cc2)=N1)NC(=O)c1ccccc1 (centres undefined),,3,101,6.1,,
N/C(=N\C(=N\S(=O)(=O)c1ccc(Cl)cc1)N1CC(c2ccccc2)C(c2ccc(Cl)cc2)=N1)N1CCCC1 (centres undefined),135,,,,,
CCN(CC)/C(N)=N/C(=N/S(=O)(=O)c1ccc(Cl)cc1)N1CC(c2ccccc2)C(c2ccc(Cl)cc2)=N1 (centres undefined),113,,113,53,,
N/C(=N\C(=N\S(=O)(=O)c1ccc(OC(F)(F)F)cc1)N1CC(c2ccccc2)C(c2ccc(Cl)cc2)=N1)NC(=O)c1ccccc1 (centres undefined),,13,104,86,,
CC(=O)N/C(N)=N/C(=N/S(=O)(=O)c1ccc(I)cc1)N1CC(c2ccccc2)C(c2ccc(Cl)cc2)=N1 (centres undefined),,3.2,121,2.8,,
CC(=O)N/C(N)=N/C(=N/S(=O)(=O)N1CCOCC1)N1CC(c2ccccc2)C(c2ccc(Cl)cc2)=N1 (centres undefined),,2.3,162,2,,
